From ChEMBL document CHEMBL1201862, “PubChem BioAssay data set” (2004)
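Step 1: Grow cells in 96-well plates. Step 2: Expose to compound for 48 hours at 5 concentrations. Step 3: Interpolate endpoints linearly; if unreached, use highest concentration. The concentration for 50% growth inhibition is given as GI50.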 The source made the active and inactive calls. Rule as the data show it: active = GI50 up to about 1.1 µM and inactive = higher.

Experiments:
Assay in all cases: NCI tumour cell line growth inhibition, 48 h
EKVX = system: EKVX
BT-549 = system: BT-549
MOLT-4 = system: MOLT-4
T47D = system: T47D
PC-3 = system: PC-3
HOP-62 = system: HOP-62
NCI-H226 = system: NCI-H226
COLO 205 = system: COLO 205
HT-29 = system: HT-29
SR = system: SR
NCI-H522 = system: NCI-H522
SK-MEL-28 = system: SK-MEL-28
TK-10 = system: TK-10
ACHN = system: ACHN
UACC-62 = system: UACC-62
CAKI-1 = system: CAKI-1
DU-145 = system: DU-145
NCI-H460 = system: NCI-H460
Hs-578T = system: Hs-578T
OVCAR-8 = system: OVCAR-8
LOX IMVI = system: LOX IMVI
IGROV-1 = system: IGROV-1
SN12C = system: SN12C
HCC 2998 = system: HCC 2998
SF-539 = system: SF-539
HCT-116 = system: HCT-116
Malme-3M = system: Malme-3M
HL-60 = system: HL-60
NCI/ADR-RES = system: NCI/ADR-RES
K562 = system: K562
MDA-MB-435 = system: MDA-MB-435
SNB-75 = system: SNB-75
A549 = system: A549
NCI-H23 = system: NCI-H23
MCF7 = system: MCF7
SF-295 = system: SF-295
RXF 393 = system: RXF 393
SNB-19 = system: SNB-19
OVCAR-4 = system: OVCAR-4
MDA-MB-231 = system: MDA-MB-231
OVCAR-5 = system: OVCAR-5
CCRF-CEM = system: CCRF-CEM
SK-MEL-2 = system: SK-MEL-2
HCT-15 = system: HCT-15
SK-MEL-5 = system: SK-MEL-5
MDA-N = system: MDA-N
RPMI-8226 = system: RPMI-8226
UO-31 = system: UO-31
SW-620 = system: SW-620
OVCAR-3 = system: OVCAR-3
U-251 = system: U-251
SK-OV-3 = system: SK-OV-3
UACC-257 = system: UACC-257
SF-268 = system: SF-268
A498 = system: A498
M14 = system: M14
786-0 = system: 786-0
KM12 = system: KM12
HOP-92 = system: HOP-92

CCC(CC)C(=O)OC[n+]1cccc(-c2c(COC(=O)NC(C)C)c(COC(=O)NC(C)C)c3n2CCC3)c1
GI50 (EKVX): > 100 µM (inactive) | GI50 (BT-549): > 100 µM (inactive) | GI50 (MOLT-4): 33.3 µM (inactive) | GI50 (T47D): > 100 µM (inactive) | GI50 (PC-3): > 100 µM (inactive) | GI50 (HOP-62): 43.4 µM (inactive) | GI50 (NCI-H226): > 100 µM (inactive) | GI50 (COLO 205): > 100 µM (inactive) | GI50 (HT-29): > 100 µM (inactive) | GI50 (SR): 5.87 µM (inactive) | GI50 (NCI-H522): 56.2 µM (inactive) | GI50 (SK-MEL-28): > 100 µM (inactive) | GI50 (TK-10): > 100 µM (inactive) | GI50 (ACHN): 40.8 µM (inactive) | GI50 (UACC-62): 46.6 µM (inactive) | GI50 (CAKI-1): 49.4 µM (inactive) | GI50 (DU-145): > 100 µM (inactive) | GI50 (NCI-H460): 45.8 µM (inactive) | GI50 (Hs-578T): 50.7 µM (inactive) | GI50 (OVCAR-8): > 100 µM (inactive) | GI50 (LOX IMVI): > 100 µM (inactive) | GI50 (IGROV-1): > 100 µM (inactive) | GI50 (SN12C): 58.2 µM (inactive) | GI50 (HCC 2998): > 100 µM (inactive) | GI50 (SF-539): 68.7 µM (inactive) | GI50 (HCT-116): > 100 µM (inactive) | GI50 (Malme-3M): > 100 µM (inactive) | GI50 (HL-60): 33.1 µM (inactive) | GI50 (NCI/ADR-RES): 63.2 µM (inactive) | GI50 (K562): 97.5 µM (inactive) | GI50 (MDA-MB-435): > 100 µM (inactive) | GI50 (SNB-75): > 100 µM (inactive) | GI50 (A549): > 100 µM (inactive) | GI50 (NCI-H23): 61.1 µM (inactive) | GI50 (MCF7): 64.9 µM (inactive) | GI50 (SF-295): > 100 µM (inactive) | GI50 (RXF 393): 61.4 µM (inactive) | GI50 (SNB-19): > 100 µM (inactive) | GI50 (OVCAR-4): > 100 µM (inactive) | GI50 (MDA-MB-231): > 100 µM (inactive) | GI50 (OVCAR-5): > 100 µM (inactive) | GI50 (CCRF-CEM): 38.4 µM (inactive) | GI50 (SK-MEL-2): > 100 µM (inactive) | GI50 (HCT-15): > 100 µM | GI50 (SK-MEL-5): > 100 µM (inactive) | GI50 (MDA-N): > 100 µM (inactive) | GI50 (RPMI-8226): > 100 µM (inactive) | GI50 (UO-31): > 100 µM (inactive) | GI50 (SW-620): > 100 µM (inactive) | GI50 (OVCAR-3): > 100 µM (inactive) | GI50 (U-251): > 100 µM (inactive) | GI50 (SK-OV-3): > 100 µM (inactive) | GI50 (UACC-257): > 100 µM (inactive) | GI50 (SF-268): 62.8 µM (inactive) | GI50 (A498): > 100 µM (inactive) | GI50 (M14): 56.9 µM (inactive) | GI50 (786-0): 50 µM (inactive) | GI50 (KM12): > 100 µM (inactive) | GI50 (HOP-92): 72.3 µM (inactive)

O=C(NNC(=S)Nc1ccccc1)C12CC3CC(CC(C3)C1)C2
GI50 (EKVX): 36 µM (inactive) | GI50 (BT-549): 9.1 µM (inactive) | GI50 (MOLT-4): 10 µM (inactive) | GI50 (T47D): 27.6 µM (inactive) | GI50 (PC-3): 18.2 µM (inactive) | GI50 (HOP-62): 35.2 µM (inactive) | GI50 (NCI-H226): 26.7 µM (inactive) | GI50 (COLO 205): 20.7 µM (inactive) | GI50 (HT-29): 21.3 µM (inactive) | GI50 (SR): 0.252 µM (active) | GI50 (NCI-H522): 28.1 µM (inactive) | GI50 (SK-MEL-28): 21.9 µM (inactive) | GI50 (TK-10): 39.5 µM (inactive) | GI50 (ACHN): 20.3 µM (inactive) | GI50 (UACC-62): 13.7 µM (inactive) | GI50 (CAKI-1): 21.9 µM (inactive) | GI50 (DU-145): 28.6 µM (inactive) | GI50 (NCI-H460): 7.23 µM (inactive) | GI50 (Hs-578T): > 74.3 µM (inactive) | GI50 (OVCAR-8): 21.7 µM (inactive) | GI50 (LOX IMVI): 11.2 µM (inactive) | GI50 (IGROV-1): 25.1 µM (inactive) | GI50 (SN12C): 24.5 µM (inactive) | GI50 (HCC 2998): 30.9 µM (inactive) | GI50 (SF-539): 25.8 µM (inactive) | GI50 (HCT-116): 13.6 µM (inactive) | GI50 (Malme-3M): 20 µM (inactive) | GI50 (HL-60): 7.01 µM (inactive) | GI50 (NCI/ADR-RES): 15.5 µM (inactive) | GI50 (K562): 12.7 µM (inactive) | GI50 (MDA-MB-435): 23.7 µM (inactive) | GI50 (SNB-75): 29.4 µM (inactive) | GI50 (A549): 19.9 µM (inactive) | GI50 (NCI-H23): 31.8 µM (inactive) | GI50 (MCF7): 19.2 µM (inactive) | GI50 (SF-295): 11.4 µM (inactive) | GI50 (RXF 393): 27.7 µM (inactive) | GI50 (SNB-19): 25.4 µM (inactive) | GI50 (OVCAR-4): 29.2 µM (inactive) | GI50 (MDA-MB-231): 40 µM (inactive) | GI50 (OVCAR-5): 59.4 µM (inactive) | GI50 (CCRF-CEM): 6.92 µM (inactive) | GI50 (SK-MEL-2): 22.1 µM (inactive) | GI50 (HCT-15): 7.28 µM | GI50 (SK-MEL-5): 8.53 µM (inactive) | GI50 (MDA-N): 26.8 µM (inactive) | GI50 (RPMI-8226): 17.3 µM (inactive) | GI50 (UO-31): 4.58 µM (inactive) | GI50 (SW-620): 24.2 µM (inactive) | GI50 (OVCAR-3): 10.6 µM (inactive) | GI50 (U-251): 12.9 µM (inactive) | GI50 (SK-OV-3): 41.4 µM (inactive) | GI50 (UACC-257): 31.7 µM (inactive) | GI50 (SF-268): 17.1 µM (inactive) | GI50 (A498): 21.1 µM (inactive) | GI50 (M14): 13.8 µM (inactive) | GI50 (786-0): 19.3 µM (inactive) | GI50 (KM12): 43.2 µM (inactive) | GI50 (HOP-92): 30.1 µM (inactive)

CCC(=O)O[C@H]1CC[C@H]2[C@@H]3CCC4=C/C(=N/OC(=O)c5cccc6cc7ccccc7nc56)CC[C@]4(C)[C@H]3CC[C@]12C
GI50 (EKVX): 53.6 µM (inactive) | GI50 (BT-549): 63.8 µM (inactive) | GI50 (MOLT-4): > 100 µM (inactive) | GI50 (T47D): 21.9 µM (inactive) | GI50 (PC-3): 29 µM (inactive) | GI50 (HOP-62): 50.5 µM (inactive) | GI50 (NCI-H226): > 100 µM (inactive) | GI50 (COLO 205): 41 µM (inactive) | GI50 (HT-29): 42.9 µM (inactive) | GI50 (SR): 67.9 µM (inactive) | GI50 (NCI-H522): 41.4 µM (inactive) | GI50 (SK-MEL-28): 90.2 µM (inactive) | GI50 (ACHN): > 100 µM (inactive) | GI50 (UACC-62): 27.8 µM (inactive) | GI50 (CAKI-1): > 100 µM (inactive) | GI50 (DU-145): > 100 µM (inactive) | GI50 (NCI-H460): 39.1 µM (inactive) | GI50 (Hs-578T): 39.6 µM (inactive) | GI50 (OVCAR-8): 42.3 µM (inactive) | GI50 (LOX IMVI): 33.4 µM (inactive) | GI50 (IGROV-1): 11.5 µM (inactive) | GI50 (SN12C): > 100 µM (inactive) | GI50 (HCC 2998): > 100 µM (inactive) | GI50 (SF-539): 43.4 µM (inactive) | GI50 (HCT-116): 36.1 µM (inactive) | GI50 (Malme-3M): 29.2 µM (inactive) | GI50 (HL-60): 44.3 µM (inactive) | GI50 (NCI/ADR-RES): 60.4 µM (inactive) | GI50 (K562): > 100 µM (inactive) | GI50 (MDA-MB-435): 38.8 µM (inactive) | GI50 (SNB-75): 83.8 µM (inactive) | GI50 (A549): 71.1 µM (inactive) | GI50 (NCI-H23): 52.8 µM (inactive) | GI50 (MCF7): 42.2 µM (inactive) | GI50 (RXF 393): > 100 µM (inactive) | GI50 (SNB-19): 70.1 µM (inactive) | GI50 (OVCAR-4): 76 µM (inactive) | GI50 (MDA-MB-231): > 100 µM (inactive) | GI50 (OVCAR-5): > 100 µM (inactive) | GI50 (CCRF-CEM): 41.2 µM (inactive) | GI50 (SK-MEL-2): 55.2 µM (inactive) | GI50 (HCT-15): 55.7 µM | GI50 (SK-MEL-5): 15.2 µM (inactive) | GI50 (MDA-N): 51.5 µM (inactive) | GI50 (RPMI-8226): 50.4 µM (inactive) | GI50 (SW-620): 65.8 µM (inactive) | GI50 (OVCAR-3): 29 µM (inactive) | GI50 (U-251): 51.9 µM (inactive) | GI50 (SK-OV-3): > 100 µM (inactive) | GI50 (UACC-257): 63.4 µM (inactive) | GI50 (SF-268): > 100 µM (inactive) | GI50 (A498): > 100 µM (inactive) | GI50 (M14): 64.1 µM (inactive) | GI50 (786-0): > 100 µM (inactive) | GI50 (KM12): 40.7 µM (inactive) | GI50 (HOP-92): > 100 µM (inactive)
